Test results reported in patent US7572775B2, “Method of inhibiting intestinal polyps” (Japan as Represented by Director General of Agency of …, priority 2004, dated 2009).
Marks after values point to notes of the source that are not given here.

Test system: Min mice of a familial adenomatous polyposis model (Apc gene deficient mice, C57BL/6-ApcMin/+)
Assay: Intestinal polyp suppression test (intestinal polyp assay) in Min mice
Type: in vivo, mouse
Conditions: for Number of polyps/mouse, colon / Number of polyps/mouse, small intestine, central / Number of polyps/mouse, small intestine, distal / Number of polyps/mouse, small intestine, proximal / Number of polyps/mouse, total / Number of polyps, percentage of the result for the 0 dose (control) group, small intestine, central / Number of polyps, percentage of the result for the 0 dose (control) group, small intestine, distal / Number of polyps, percentage of the result for the 0 dose (control) group, small intestine, proximal / Number of polyps, percentage of the result for the 0 dose (control) group, colon / Number of polyps, percentage of the result for the 0 dose (control) group, total: male Min mice; for Number of polyps/mouse, colon / Number of polyps/mouse, small intestine, central / Number of polyps/mouse, small intestine, distal / Number of polyps/mouse, small intestine, proximal / Number of polyps/mouse, total: average ± SE; for Number of polyps, percentage of the result for the 0 dose (control) group, small intestine, proximal: p < 0.01 vs control
Description: The experimental animals were male Min mice of a familial adenomatous polyposis model (Apc (Adenomatous polyposis coli) gene deficient mice, C57BL/6-ApcMin/+, Jackson Laboratory, Bar Harbor, Me.). These mice were purchased at age 5 weeks, and acclimatized for 2 weeks to laboratory conditions (24±2° C., humidity 55%, 12 hours light/12 hours dark cycle, free access to feed and water) before being used in the tests. The feed was “AIN-76A” basic feed (Clea Japan).
Wild-type […] mice (from the same source) were subjected to the same test as a control.
Compound A was used as the experimental medicine. The compound was mixed to a specific concentration (400 ppm or 800 ppm) with the AIN-76A basic feed for use in the tests.
Feed comprising a specific amount of the experimental medicine mixed to a specific concentration with basic feed (AIN-76A) was administered to the experimental group mice (2 groups of 10 mice) and comparison group mice (1 group of 10 mice) for 13 weeks from age 7 weeks to age 20 weeks (natural feeding). When death was confirmed during the experiment, however, administration was naturally discontinued.
A group of 10 mice receiving basic feed (AIN-76A) without the experimental medicine added for the same length of time was set up as a control group (experimental drug non-administration group).
13 weeks after the start of the experiment the mice in all groups (excluding those which had died) were euthanized, and an intestinal polyp assay was performed as follows.
The intestines were removed from the mice in all groups, placed in phosphate buffer containing 10% formalin, and then separated into four parts: (1) the colon, (2) the proximal part of the small intestine (about 4 cm long beginning at the pylorus), (3) the central part of the small intestine (the center of the remaining half of the small intestine) and (4) the distal part of the small intestine (the distal part of the remaining half of the small intestine). Each part was opened longitudinally, and fixed flat between sheets of filter paper in phosphate buffer containing 10% formalin.
The number and size of polyps and their distribution in the intestines were counted, measured and evaluated under a stereoscopic microscope. These methods are described in the literature reference(Watanabe, K. et al., “Role of the prostaglandin E receptor subtype EP1 in colon carcinogenesis”, Cancer Res., 59, 5093-6 (1999)).

[1] = 400 ppm in AIN-76A feed for 13 weeks
[2] = 400 ppm in feed for 13 weeks, p < 0.05 vs control
[3] = 800 ppm in AIN-76A feed for 13 weeks
[4] = 800 ppm in feed for 13 weeks, p < 0.05 vs control

## CCOP(=O)(Cc1ccc(C(=O)Nc2ccc(Br)cc2C#N)cc1)OCC [Compound A, 4-diethoxyphosphinoylmethyl-N-(4-bromo-2-cyanophenyl)benzamide]
400 ppm and 800 ppm in feed, Min mice, polyp diameter (mm)
  Number of polyps by polyp diameter (FIG. 1): reduction in the number of polyps of all sizes
[1]
  Number of polyps/mouse, colon: 0.4 ± 0.2 polyps/mouse
  Number of polyps/mouse, small intestine, central: 16.1 ± 3.8 polyps/mouse
  Number of polyps/mouse, small intestine, distal: 33.0 ± 6.5 polyps/mouse
  Number of polyps/mouse, small intestine, proximal: 8.5 ± 1.4 polyps/mouse
  Number of polyps/mouse, total: 58.0 ± 10.8 polyps/mouse
400 ppm in feed for 13 weeks
  Number of polyps, percentage of the result for the 0 dose (control) group, small intestine, central: (43) percentage
  Number of polyps, percentage of the result for the 0 dose (control) group, small intestine, distal: (55) percentage
  Number of polyps, percentage of the result for the 0 dose (control) group, small intestine, proximal: (37)^d percentage
[2]
  Number of polyps, percentage of the result for the 0 dose (control) group, colon: (38)^c percentage
  Number of polyps, percentage of the result for the 0 dose (control) group, total: (48)^c percentage
400 ppm in feed, group of 10 Min mice, 13 weeks, 3 died in the control group
  Mice that died during the experiment (death due to bleeding from polyps): 2 mice
[3]
  Number of polyps/mouse, colon: 0.3 ± 0.2 polyps/mouse
  Number of polyps/mouse, small intestine, central: 13.8 ± 2.6 polyps/mouse
  Number of polyps/mouse, small intestine, distal: 30.5 ± 5.0 polyps/mouse
  Number of polyps/mouse, small intestine, proximal: 5.9 ± 1.0 polyps/mouse
  Number of polyps/mouse, total: 50.5 ± 7.8 polyps/mouse
800 ppm in feed for 13 weeks
  Number of polyps, percentage of the result for the 0 dose (control) group, small intestine, proximal: (26)^d percentage
[4]
  Number of polyps, percentage of the result for the 0 dose (control) group, colon: (30)^c percentage
  Number of polyps, percentage of the result for the 0 dose (control) group, small intestine, central: (37)^c percentage
  Number of polyps, percentage of the result for the 0 dose (control) group, small intestine, distal: (51)^c percentage
  Number of polyps, percentage of the result for the 0 dose (control) group, total: (42)^c percentage
Dosage of either 400 ppm or 800 ppm in feed, Min mice
  Polyp suppression effect: excellent polyp suppression effect
